Assay results taken from patent US9409952B2, “Peptide-compound cyclization method” (Chugai Seiyaku Kabushiki Kaisha, priority 2011, dated 2016).
Like-named read-outs stand apart in the source and are kept apart here. Starred links: 1 amine or outer side, 2 acyl side, 3 side chain; linkers in the order of their positions; H or OH if unused. Positions of bridges follow the written chain, without caps; N, C: chain ends. Non-standard residues stand in square brackets, D forms with d. Residues, ends and D or L forms follow the SMILES beside them. *: point of attachment. Phe(3-(CH2)4CO) = O=C([C@H](Cc1cccc(CCCCC(=O)[*:3])c1)N[*:1])[*:2]; Phe(4-CF3) = N[C@@H](Cc1ccc(C(F)(F)F)cc1)C(=O)O; NMePhe(3-Cl) = CN[C@@H](Cc1cccc(Cl)c1)C(=O)O; NMeF = CN[C@@H](Cc1ccccc1)C(=O)O; NMeGABA = CN(CCCC(=O)[*:2])[*:1]; NMeI = CC[C@H](C)[C@H](NC)C(=O)O; NMeβAla = CN(CCC(=O)[*:2])[*:1]; NMeL = CN[C@@H](CC(C)C)C(=O)O; NMeV = CN[C@H](C(=O)O)C(C)C; NMeA = CN[C@@H](C)C(=O)O; Piperidide = C1CCN(*)CC1; dNMeA = CN[C@H](C)C(=O)O; β3hA = C[C@H](N)CC(=O)O; Sar = CNCC(=O)O; tBu = CC(C)(C)*

Key:
[1] = PAMPA (parallel artificial membrane permeability assay); assay type: in vitro ADME; details: PAMPA
Outline: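 Artificial membrane was 10% (w/v) egg lecithin plus 0.5% (w/v) cholesterol in dodecane on a PVDF filter. A 10 mM DMSO stock was added at 0.5% (v/v) to donor buffer (50 mM MOPSO, pH 6.5, 5.0% glycocholic acid). After 18 h at 37 °C, LC/MS or LC/UV gave donor and acceptor levels for Pe.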

[2] = Metabolic stability in human hepatic microsome; assay type: in vitro ADME; details: microsomes
[3] = membrane permeation rate (Pe), 50 mM MOPSO buffer pH 6.5 with 5.0% glycocholic acid, 37° C., 18 hours, read-out: iPAMPA Pe
[4] = pH 7.4, human hepatic microsome, NADPH(+), read-out: CL NADPH(+)

| SMILES | Papp at 18 hours, 50 µM [1, 3] [×10⁻⁶ cm/s] | microsomal CLint at 1 uM [2, 4] [µL/min/mg] | Papp at 18 hours, 50 µM ([1]; pH 6.5) [×10⁻⁶ cm/s] | microsomal CLint at 1 uM ([2]; human, pH 7.4, CL NADPH(+)) [µL/min/mg] |
| --- | --- | --- | --- | --- |
| CC(C)C[C@H]1C(=O)N(C)[C@@H](CC(C)C)C(=O)N(C)[C@@H](CC(C)C)C(=O)N[C@H](C(=O)N2CCCCC2)CC(=O)N(C)CCC(=O)N(C)[C@@H](Cc2ccccc2)C(=O)N(C)[C@@H](CC(C)C)C(=O)N[C@@H]([C@@H](C)O)C(=O)N(C)[C@@H](C)C(=O)NCC(=O)N1C [DP-428] ([NMeβAla][NMeF][NMeL]T[NMeA]G[NMeL][NMeL][NMeL]D-Piperidide; lactam N-10) | 26 | 77 | – | – |
| CC(C)C[C@@H]1NC(=O)[C@@H](C(C)C)NC(=O)C[C@H](C)NC(=O)[C@H](CC(C)C)N(C)C(=O)[C@H](Cc2cccc(Cl)c2)N(C)C(=O)[C@H](CC(C)C)N(C)C(=O)[C@H](Cc2ccc(C(F)(F)F)cc2)NC(=O)[C@H](C)N(C)C(=O)[C@H]([C@@H](C)O)NC1=O [DP-792] (cyclo(LT[NMeA][Phe(4-CF3)][NMeL][NMePhe(3-Cl)][NMeL][β3hA][dV])) | 33 | 16 | – | – |
| CC[C@H](C)[C@H]1C(=O)NCC(=O)N[C@@H]([C@@H](C)O)C(=O)N2CCC[C@H]2C(=O)N[C@@H](Cc2ccccc2)C(=O)N(C)[C@@H](CC(C)C)C(=O)N[C@H](C(=O)N2CCCCC2)CC(=O)N[C@H](C(C)C)C(=O)N[C@@H](Cc2ccccc2)C(=O)N(C)[C@@H](CC(C)C)C(=O)N[C@@H](CC(C)C)C(=O)N1C [DP-231] ([dV]F[NMeL]L[NMeI]GTPF[NMeL]D-Piperidide; lactam N-11) | – | – | 18 | 56 |
| CC(C)C[C@H]1C(=O)N[C@@H]([C@@H](C)O)C(=O)N[C@@H](C)C(=O)N(C)[C@@H](Cc2ccccc2)C(=O)N[C@H](C(=O)N2CCCCC2)CC(=O)N(C)[C@@H](C)C(=O)N(C)[C@@H](CC(C)C)C(=O)N[C@@H](Cc2ccccc2)C(=O)N1C [DP-700] ([NMeA][NMeL]F[NMeL]TA[NMeF]D-Piperidide; lactam N-8) | 49 | 398 | – | – |
| CC[C@H](C)[C@@H]1NC(=O)[C@H](C)N(C)C(=O)[C@H]([C@@H](C)O)NC(=O)[C@H](C(C)C)N(C)C(=O)[C@H](C)N(C)C(=O)[C@H](Cc2ccccc2)NC(=O)[C@H](C)NC(=O)C[C@@H](C(=O)N(C)[C@@H](Cc2ccccc2)C(=O)N[C@@H](C)C(=O)N2CCCCC2)NC(=O)[C@H](C)N(C)C(=O)[C@H](CC(C)C)N(C)C1=O [DP-288] (AF[NMeA][NMeV]T[NMeA]I[NMeL][NMeA]D[NMeF]A-Piperidide; lactam N-10) | – | – | 18 | 80 |
| CC(C)C[C@H]1C(=O)N[C@H](C(=O)N2CCCCC2)CC(=O)N(C)[C@H](C)C(=O)N(C)[C@@H](CC(C)C)C(=O)N[C@@H]([C@@H](C)O)C(=O)N(C)CC(=O)N[C@@H](COC(C)(C)C)C(=O)N1C [DP-536] ([dNMeA][NMeL]T[Sar]S(tBu)[NMeL]D-Piperidide; lactam N-7) | 9.9 | 113 | – | – |
| CC[C@H](C)[C@H]1C(=O)N(C)[C@@H](CC(C)C)C(=O)N[C@H](C(=O)N2CCCCC2)CC(=O)N(C)CCC(=O)N(C)[C@@H](CC(C)C)C(=O)N[C@@H]([C@@H](C)O)C(=O)N(C)[C@@H](C)C(=O)N(C)[C@@H](Cc2ccccc2)C(=O)N[C@@H](C)C(=O)N(C)[C@@H](Cc2ccccc2)C(=O)N[C@@H](CC(C)C)C(=O)N1C [DP-240] ([NMeβAla][NMeL]T[NMeA][NMeF]A[NMeF]L[NMeI][NMeL]D-Piperidide; lactam N-11) | 38 | 125 | – | – |
| CC[C@H](C)[C@H]1C(=O)N[C@@H](Cc2ccccc2)C(=O)N(C)[C@@H](Cc2ccccc2)C(=O)N[C@@H]([C@@H](C)O)C(=O)N2CCC[C@H]2C(=O)N[C@@H](CC(C)C)C(=O)N[C@H](C(=O)N2CCCCC2)Cc2cccc(c2)CCCCC(=O)NCC(=O)N(C)[C@@H](C(C)C)C(=O)N(C)[C@@H](CC(C)C)C(=O)N[C@@H](C)C(=O)N1C [DP-885] (G[NMeV][NMeL]A[NMeI]F[NMeF]TPL[Phe(3-(CH2)4CO)]-Piperidide; lactam N-11) | 30 | 75 | – | – |
| CC(C)C[C@H]1C(=O)N(C)[C@@H](C(C)C)C(=O)N[C@@H]([C@@H](C)O)C(=O)N(C)CC(=O)N(C)[C@@H](C)C(=O)N(C)[C@@H](C)C(=O)N[C@@H](C(C)C)C(=O)N[C@H](C(=O)N2CCCCC2)CC(=O)N(C)[C@H](C)C(=O)N(C)[C@@H](C)C(=O)N[C@@H](C)C(=O)N(C)[C@@H](Cc2ccccc2)C(=O)N1C [DP-319] ([dNMeA][NMeA]A[NMeF][NMeL][NMeV]T[Sar][NMeA][NMeA]VD-Piperidide; lactam N-12) | 1 | 12 | – | – |
| CC[C@H](C)[C@H]1C(=O)NCC(=O)N[C@@H](C)CC(=O)N(C)[C@H](C)C(=O)N[C@@H](Cc2ccccc2)C(=O)N(C)[C@@H](CC(C)C)C(=O)N[C@@H](COC(C)(C)C)C(=O)N[C@@H](Cc2ccccc2)C(=O)N2CCC[C@H]2C(=O)N[C@@H]([C@@H](C)O)C(=O)N[C@@H](CC(C)C)C(=O)N(C)[C@@H](C)C(=O)N1C [DP-754] (cyclo(F[NMeL]S(tBu)FPTL[NMeA][NMeI]G[β3hA][dNMeA])) | – | – | 32 | 41 |
| CC(C)C[C@@H]1NC(=O)[C@H](Cc2ccccc2)N(C)C(=O)[C@H](Cc2ccccc2)N(C)C(=O)[C@H]([C@@H](C)O)NC(=O)CN(C)C(=O)[C@H](C)NC(=O)C[C@@H](C(=O)N2CCCCC2)NC1=O [DP-751] (A[Sar]T[NMeF][NMeF]LD-Piperidide; lactam N-7) | 18 | 156 | – | – |
| CC(C)C[C@H]1C(=O)N[C@@H](COC(C)(C)C)C(=O)N[C@H](C(=O)N2CCCCC2)CC(=O)N[C@@H](C)C(=O)N(C)[C@@H](Cc2ccccc2)C(=O)N(C)CC(=O)N(C)[C@@H](Cc2ccccc2)C(=O)N[C@@H]([C@@H](C)O)C(=O)N1C [DP-711] (A[NMeF][Sar][NMeF]T[NMeL]S(tBu)D-Piperidide; lactam N-8) | 29 | 217 | – | – |
| CC[C@H](C)[C@H](NC(=O)[C@@H](NC(=O)[C@H](C)N(C)C(=O)[C@@H]1CC(=O)N(C)[C@@H](C)C(=O)N(C)[C@@H](CC(C)C)C(=O)N(C)[C@@H](CC(C)C)C(=O)N[C@@H](CC(C)C)C(=O)N(C)[C@@H](CC(C)C)C(=O)N(C)[C@@H](Cc2ccccc2)C(=O)N(C)[C@@H](Cc2ccccc2)C(=O)N[C@@H]([C@@H](C)O)C(=O)N(C)[C@@H](C)C(=O)N(C)[C@@H](CC(C)C)C(=O)N1)C(C)C)C(=O)N1CCCCC1 [DP-951] ([NMeA][NMeL][NMeL]L[NMeL][NMeF][NMeF]T[NMeA][NMeL]D[NMeA]VI-Piperidide; lactam N-11) | 0.1 | 11 | – | – |
| CC[C@H](C)[C@@H]1NC(=O)[C@H](CC(C)C)NC(=O)[C@H](CC(C)C)N(C)C(=O)[C@H](CC(C)C)NC(=O)[C@H](CC(C)C)NC(=O)[C@H](Cc2ccccc2)NC(=O)[C@H](CC(C)C)NC(=O)[C@H](Cc2ccccc2)NC(=O)[C@H]([C@@H](C)O)NC(=O)CCN(C)C(=O)C[C@@H](C(=O)N2CCCCC2)NC1=O [DP-323] ([NMeβAla]TFLFLL[NMeL]LID-Piperidide; lactam N-11) | 7.8 | 182 | – | – |
| CC[C@H](C)[C@@H]1NC(=O)[C@@H](C)NC(=O)C[C@@H](C(=O)N2CCCCC2)NC(=O)[C@H](Cc2ccccc2)NC(=O)[C@H]([C@@H](C)O)NC(=O)[C@H](C)NC(=O)[C@H](Cc2ccccc2)NC(=O)[C@H](CC(C)C)NC(=O)[C@H](CC(C)C)N(C)C(=O)[C@H](Cc2ccccc2)NC(=O)[C@H](CC(C)C)NC1=O [DP-415] ([dA]ILF[NMeL]LFATFD-Piperidide; lactam N-11) | 2.9 | 118 | – | – |
| CC(C)C[C@H]1C(=O)N(C)[C@@H](CC(C)C)C(=O)N[C@@H](COC(C)(C)C)C(=O)N[C@H](C(=O)N2CCCCC2)CC(=O)N(C)CCCC(=O)N(C)[C@@H](Cc2ccccc2)C(=O)N[C@@H]([C@@H](C)O)C(=O)N(C)CC(=O)N1C [DP-695] ([NMeGABA][NMeF]T[Sar][NMeL][NMeL]S(tBu)D-Piperidide; lactam N-8) | 15 | 47 | – | – |
| CC(C)C[C@@H]1NC(=O)[C@H](Cc2ccccc2)N(C)C(=O)[C@@H](C(C)C)NC(=O)C[C@@H](C(=O)N2CCCCC2)NC(=O)[C@H](Cc2ccccc2)NC(=O)[C@H](CC(C)C)N(C)C(=O)[C@H]([C@@H](C)O)NC(=O)[C@H](CC(C)C)N(C)C1=O [DP-703] ([dV][NMeF]L[NMeL]T[NMeL]FD-Piperidide; lactam N-8) | 34 | 222 | – | – |
| CC(C)C[C@@H]1NC(=O)[C@H]([C@@H](C)O)NC(=O)[C@H](Cc2ccccc2)N(C)C(=O)[C@H](CC(C)C)N(C)C(=O)[C@H](Cc2ccccc2)N(C)C(=O)[C@H](C)N(C)C(=O)[C@H](C)N(C)C(=O)[C@H](CC(C)C)N(C)C(=O)[C@@H](C)NC(=O)C[C@@H](C(=O)N2CCCCC2)NC1=O [DP-169] ([dA][NMeL][NMeA][NMeA][NMeF][NMeL][NMeF]TLD-Piperidide; lactam N-10) | 36 | 43 | – | – |
| CC(C)C[C@H]1C(=O)N[C@@H]([C@@H](C)O)C(=O)N[C@@H](COC(C)(C)C)C(=O)N[C@H](C(=O)N2CCCCC2)CC(=O)N(C)CCC(=O)N(C)[C@@H](Cc2ccccc2)C(=O)N(C)[C@@H](CC(C)C)C(=O)N1C [DP-747] ([NMeβAla][NMeF][NMeL][NMeL]TS(tBu)D-Piperidide; lactam N-7) | 20 | 248 | – | – |
